According to PMC4389443 (Respiratory Research, 2015):
“Also recorded” adds a separate entry of the source. Like-named read-outs stand apart in the source and are kept apart here.

Columns and labels:
[1] = target: T1, Recombinant retina specific amine oxidase (AOC2) (Homo sapiens, UniProt O75106); test: AOC2 enzyme activity assay; assay type: biochemical
T1 sequence (O75106 1-756): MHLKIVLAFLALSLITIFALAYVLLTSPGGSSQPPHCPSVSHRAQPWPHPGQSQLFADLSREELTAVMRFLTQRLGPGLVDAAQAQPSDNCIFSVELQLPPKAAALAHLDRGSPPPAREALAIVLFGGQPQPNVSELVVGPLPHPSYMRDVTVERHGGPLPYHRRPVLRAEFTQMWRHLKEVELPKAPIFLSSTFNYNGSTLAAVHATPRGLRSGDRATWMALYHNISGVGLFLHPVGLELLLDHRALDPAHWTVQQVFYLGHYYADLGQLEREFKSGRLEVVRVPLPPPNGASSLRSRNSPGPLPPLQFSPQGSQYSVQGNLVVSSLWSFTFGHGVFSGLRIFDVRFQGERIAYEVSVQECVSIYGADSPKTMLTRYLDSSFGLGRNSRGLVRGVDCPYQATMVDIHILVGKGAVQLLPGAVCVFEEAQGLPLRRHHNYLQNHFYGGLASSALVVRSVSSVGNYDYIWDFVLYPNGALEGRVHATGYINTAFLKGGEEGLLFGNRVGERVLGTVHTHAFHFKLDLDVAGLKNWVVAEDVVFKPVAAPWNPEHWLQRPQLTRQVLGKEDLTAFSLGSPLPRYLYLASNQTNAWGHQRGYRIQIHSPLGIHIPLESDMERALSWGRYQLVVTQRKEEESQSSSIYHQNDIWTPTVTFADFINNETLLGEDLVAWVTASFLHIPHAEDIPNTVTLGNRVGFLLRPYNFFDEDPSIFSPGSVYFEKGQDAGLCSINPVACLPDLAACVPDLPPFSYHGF

[2] = target: T2, Recombinant lysyl oxidase like 2 (Homo sapiens, UniProt Q9Y4K0); test: LOXL2 fluorometric enzyme activity assay; assay type: biochemical
T2 construct: purchased R&D systems
T2 sequence (Q9Y4K0 26-774): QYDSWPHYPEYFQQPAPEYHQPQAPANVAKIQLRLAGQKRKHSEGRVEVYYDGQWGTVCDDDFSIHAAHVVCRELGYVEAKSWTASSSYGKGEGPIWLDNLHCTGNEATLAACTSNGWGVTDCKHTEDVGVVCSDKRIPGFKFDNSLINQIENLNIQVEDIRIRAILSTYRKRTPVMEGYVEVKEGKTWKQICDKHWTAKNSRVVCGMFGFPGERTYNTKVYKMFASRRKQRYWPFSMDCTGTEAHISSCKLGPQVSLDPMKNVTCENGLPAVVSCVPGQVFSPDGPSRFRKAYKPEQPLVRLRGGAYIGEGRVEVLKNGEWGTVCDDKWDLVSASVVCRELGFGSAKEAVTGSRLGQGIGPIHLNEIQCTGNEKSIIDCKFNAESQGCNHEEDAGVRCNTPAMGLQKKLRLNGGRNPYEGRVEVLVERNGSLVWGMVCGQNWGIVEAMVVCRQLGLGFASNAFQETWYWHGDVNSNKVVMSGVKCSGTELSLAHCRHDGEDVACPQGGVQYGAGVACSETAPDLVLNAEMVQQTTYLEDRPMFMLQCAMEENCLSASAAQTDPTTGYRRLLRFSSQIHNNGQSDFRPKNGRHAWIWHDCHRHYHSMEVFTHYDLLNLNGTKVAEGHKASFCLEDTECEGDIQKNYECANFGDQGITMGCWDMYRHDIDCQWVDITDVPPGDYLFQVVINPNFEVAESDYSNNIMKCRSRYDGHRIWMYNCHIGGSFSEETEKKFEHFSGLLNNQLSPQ
Experimental: rhLOXL2 (lysyl oxidase like 2) was purchased from R&D systems and assay was performed in 1.2 M urea, 50 mM sodium borate buffer, pH 8.2. The substrate used was 10 mM putrescine and 100 μM of β-aminopropionitrile (βAPN, Sigma-Aldrich) was added to the low controls.

[3] = Plasma stability; assay type: in vitro ADME; conditions: rat plasma, 1 hour incubation
[4] = Plasma stability; assay type: in vitro ADME; conditions: dog plasma, 1 hour incubation
[5] = Water solubility; assay type: physicochemical
[6] = Pharmacokinetics in BALB/c mice; assay type: in vivo; conditions: mouse; for Cmax: read-out: Apparent concentration at curve maximum Cmax
Experimental: Studies were performed by ICP Firefly, Pharmalegacy and Sundia with local ethics approval. […] Plasma was analyzed for PXS-4728A by high-performance liquid chromatography-mass spectrometry/mass spectrometry. Basic pharmacokinetic parameters were estimated using PK Solutions software (Summit Research Services).

[7] = test system: BALB/c mice; test: House dust mite/Rhinovirus exacerbated asthma model; assay type: in vivo, mouse; conditions: 24 hours post RV1b infection
Experimental: Study performed at the University of Newcastle under local ethics committee. BALB/c mice were sensitized and challenged intranasally to 50 μg of crude HDM extract (Dermatophagoides pteronyssinus extract was obtained from Greer Laboratories) on days 0, 1 and 2 followed by four exposures of 5 μg HDM daily from day 14 to day 17 delivered in 50 μl of sterile saline. Animals were then infected on day 18 with infective Human Rhinovirus 1b RV1B41 (2.5 × 10^6 median tissue culture infective dose) intranasally. Mice were intranasally administered 50 μl infective or ultraviolet light (UV)–inactivated RV1B41. Mice were euthanized 24 hours after the rhinovirus challenge. BAL analysis was performed for total and differential counts and airway hyperreactivity (AHR) was assessed invasively by measurement of total lung resistance and dynamic compliance (BUXCO) in response to methacholine challenge as previously described. […]. Dose of azithromycin was chosen based on previously described findings, in respiratory viral infection models.

[8] = test system: BALB/c mice; test: Klebsiella pneumoniae lung infection
[9] = test system: BALB/c mice; test: LPS airway inflammation, 6 hour time point; conditions: 6 hours after LPS
[10] = 24 hours, PXS-4728A 6 mg.kg^−1, dexamethasone 10 mg.kg^−1, oral 1 hour prior to infection

CC(C)(C)NC(=O)c1ccc(OC/C(=C/F)CN)cc1 [PXS-4728A]
IC50 [1]: 2.76 µM
IC50 [2]: 10.4 µM
Plasma stability, remaining [3]: > 90%
Plasma stability, remaining [4]: > 90%
solubility ([5]; Figure 1, read-out: Solubility (H2O)): > 10000 µg/mL
solubility ([5]; pH 7.4, aqueous buffer, read-out: Water solubility): > 10000 µg/mL
bioavailability ([6]; BALB/c, plasma, oral, 10 mg.kg^−1, mouse, oral 10 mg.kg^−1 / i.v. 5 mg.kg^−1): > 90%
Cmax ([6]; BALB/c, plasma, intravenous 5 mg.kg^−1): 1600 ng/mL
half-life ([6]; BALB/c, plasma, intravenous 5 mg.kg^−1, read-out: Apparent half-life, t1/2 (converted)): 36 min
clearance ([6]; BALB/c, plasma, intravenous 5 mg.kg^−1, read-out: Clearance CL): 80 mL/min/kg
Cmax ([6]; BALB/c, plasma, oral 10 mg.kg^−1): 1380 ng/mL
Tmax ([6]; BALB/c, plasma, oral 10 mg.kg^−1, read-out: Time of maximal concentration Tmax): 15 min
Clearance CL ([6]; oral 10 mg.kg^−1): 98 mL·kg/min
Bioavailability (%) ([6]; oral 10 mg.kg^−1 / i.v. 5 mg.kg^−1): 92%
Airways hyperreactivity to methacholine challenge ([7]; PXS-4728A 2, azithromycin 25 mg.kg^−1 ip.): significantly reduced
Total BALF neutrophils ([7]; PXS-4728A 2, dexamethasone 2, azithromycin 25 mg.kg^−1 ip.): reduced
Neutrophil migration into the airway spaces (BALF) [8, 10]: significantly dampened
Total leukocyte migration into the airway spaces (BALF) [8, 10]: significantly dampened
Log 10-CFU in the lung (bacterial load), average ([8]; 24 hours, PXS-4728A 6 mg.kg^−1, dexamethasone 10 mg.kg^−1, vehicle 7.59): 8.27 LOG 10-CFU
Survival ([8]; treated 1 hour prior to infection and daily thereafter): not compromised
Influx of neutrophils in BALF ([9]; PXS-4728A 0.2 or 2 mg.kg^−1, dexamethasone 10 mg.kg^−1, oral 1 hour prior): dampened migration significantly; also recorded: concentration-dependently reduced
Influx of total cells in BALF ([9]; PXS-4728A 0.2 or 2 mg.kg^−1 oral 1 hour prior): concentration-dependently reduced
